Species on record: Rattus norvegicus
Assay: Open TG-GATES - Regimen: Daily Repeat
Assay type: toxicity, organism-based, Sprague-Dawley
Set-up: regimen Daily Repeat, gender Male, age 6 weeks
Conditions: in vivo, po, 300 mg/kg, […], route gavage, dose level Middle; for KIDNEY_L / KIDNEY_R / KIDNEY_TOTAL: tissue Kidney; for LIVER: tissue Liver; for A/G / ALP / ALT / AST / BUN / CRE / Ca / Cl / DBIL / GLC / IP / K / LDH / Na / PL / RALB / TBIL / TC / TG / TP / gamma-GTP: tissue Plasma

SMILES: CN(C)[C@@H]1C(O)=C(C(N)=O)C(=O)[C@@]2(O)C(O)=C3C(=O)c4c(O)cccc4[C@@](C)(O)[C@H]3C[C@@H]12 [TETRACYCLINE]
- Lym (tissue Blood, time 28 day): 89.4%
- MCH (tissue Blood, time 28 day): 19 pg
- MCHC (tissue Blood, time 28 day): 33.6%
- MCV (tissue Blood, time 28 day): 56.6 fL
- Mono (tissue Blood, time 28 day): 3%
- Neu (tissue Blood, time 28 day): 7%
- PT (tissue Blood, time 28 day): 11.8 s
- Plat (tissue Blood, time 28 day): 94.9 x10_4/uL
- RBC (tissue Blood, time 28 day): 766.8 x10_4/ul
- Ret (tissue Blood, time 28 day): 2.7%
- WBC (tissue Blood, time 28 day): 147 x10_2/uL
- KIDNEY_L (time 7 day): 1 g
- KIDNEY_R (time 7 day): 1 g
- KIDNEY_TOTAL (time 7 day): 2 g
- KIDNEY_L (time 14 day): 1.1 g
- KIDNEY_R (time 14 day): 1.1 g
- KIDNEY_TOTAL (time 14 day): 2.2 g
- KIDNEY_L (time 28 day): 1.3 g
- KIDNEY_R (time 28 day): 1.2 g
- KIDNEY_TOTAL (time 28 day): 2.5 g
- LIVER (time 7 day): 10.8 g
- LIVER (time 14 day): 11.8 g
- LIVER (time 28 day): 13.2 g
- A/G (time 7 day): 2
- ALP (time 7 day): 1076.4 IU/L
- ALT (time 7 day): 38.2 IU/L
- AST (time 7 day): 69 IU/L
- BUN (time 7 day): 20.2 mg/dL
- CRE (time 7 day): 0.6 mg/dL
- Ca (time 7 day): 11.2 mg/dL
- Cl (time 7 day): 106.6 meq/L
- DBIL (time 7 day): 0.004 mg/dL
- GLC (time 7 day): 176 mg/dL
- IP (time 7 day): 9.6 mg/dL
- K (time 7 day): 5.5 meq/L
- LDH (time 7 day): 142 IU/L
- Na (time 7 day): 140.4 meq/L
- PL (time 7 day): 157.6 mg/dL
- RALB (time 7 day): 3.9 g/dL
- TBIL (time 7 day): 0.3 mg/dL
- TC (time 7 day): 82.6 mg/dL
- TG (time 7 day): 87.6 mg/dL
- TP (time 7 day): 5.9 g/dL
- gamma-GTP (time 7 day): 1 IU/L
- A/G (time 14 day): 2
- ALP (time 14 day): 1009.2 IU/L
- ALT (time 14 day): 36.8 IU/L
- AST (time 14 day): 61.6 IU/L
- BUN (time 14 day): 20.8 mg/dL
- CRE (time 14 day): 0.5 mg/dL
- Ca (time 14 day): 11.1 mg/dL
- Cl (time 14 day): 103.8 meq/L
- DBIL (time 14 day): 0.006 mg/dL
- GLC (time 14 day): 178.2 mg/dL
- IP (time 14 day): 8.6 mg/dL
- K (time 14 day): 4.8 meq/L
- LDH (time 14 day): 88.6 IU/L
- Na (time 14 day): 142.4 meq/L
- PL (time 14 day): 157 mg/dL
- RALB (time 14 day): 3.9 g/dL
- TBIL (time 14 day): 0.3 mg/dL
- TC (time 14 day): 72.4 mg/dL
- TG (time 14 day): 111.4 mg/dL
- TP (time 14 day): 6 g/dL
- gamma-GTP (time 14 day): 1.2 IU/L
- A/G (time 28 day): 1.8
- ALP (time 28 day): 813.4 IU/L
- ALT (time 28 day): 29 IU/L
- AST (time 28 day): 62.4 IU/L
- BUN (time 28 day): 19.4 mg/dL
- CRE (time 28 day): 0.6 mg/dL
- Ca (time 28 day): 10.9 mg/dL
- Cl (time 28 day): 107 meq/L
- DBIL (time 28 day): 0.026 mg/dL
- GLC (time 28 day): 173.2 mg/dL
- IP (time 28 day): 7.4 mg/dL
- K (time 28 day): 4.2 meq/L
- LDH (time 28 day): 73.8 IU/L
- Na (time 28 day): 141 meq/L
- PL (time 28 day): 146 mg/dL
- RALB (time 28 day): 3.8 g/dL
- TBIL (time 28 day): 0.3 mg/dL
- TC (time 28 day): 75.2 mg/dL
- TG (time 28 day): 127 mg/dL
- TP (time 28 day): 6 g/dL
- gamma-GTP (time 28 day): 1 IU/L
